Among the data in patent US20250368649A1, “TETRAHYDROPYRIDOPYRIMIDINE PAN-KRAS INHIBITORS” (Mirati Therapeutics, Inc., priority 2022, published 2025) are IC50 and inhibition values, retold here.

Test [1] relates to MKN1 cells. The test is described as follows: Inhibition of KRas-mediated phosphorylation of ERK (Cisbio HTRF pERK), MKN1 cells. The class given is cell-based. The settings on record: Homo sapiens, MKN-1, 3 hour compound incubation, Cisbio pERK HTRF. In outline:
(§1)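 Seeding density of 6,000 cells per well was used, with cultures kept in RPMI/10% FBS from day 1.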
Background: Time-resolved FRET reads energy transfer from a long-lived donor to a nearby acceptor.

In test [2] the test system is PSN1 cells. The test is described as follows: Inhibition of KRas-mediated phosphorylation of ERK (Cisbio HTRF pERK), PSN1 cells. The settings on record: Homo sapiens, PSN1, 3 h, 3 hour compound incubation, Cisbio pERK HTRF. Format: cell-based. Put shortly: as §1
Test [3] has as its system HCT116 cells. The test is described as follows: Inhibition of KRas-mediated phosphorylation of ERK (Cisbio HTRF pERK), HCT116 cells. The settings on record: Homo sapiens; for inhibition at 0.1 µM: HCT-116, single point at 100 nM, 3 hrs compound incubation; for IC50: HCT-116, 3 h, 3 hr compound incubation, Cisbio pERK HTRF. The class given is cell-based.
Test [4] concerns H727 cells. The test is described as follows: Inhibition of KRas-mediated phosphorylation of ERK (Cisbio HTRF pERK), H727 cells. To be noted: Homo sapiens, NCI-H727, 3 h, 3 hr compound incubation, Cisbio pERK HTRF. Format: cell-based.
Test [5] concerns the target KRas G12R (Homo sapiens, UniProt P01116, G12R). The test is described as follows: biochemical. To be noted: Binding to KRas (IC50 nM) G12R, TR-FRET displacement, KRas G12R.
Test [6] concerns H460 cells. The test is described as follows: Inhibition of KRas-mediated phosphorylation of ERK (Cisbio HTRF pERK), H460 cells. Format: cell-based. To be noted: Homo sapiens; for inhibition at 0.1 µM: NCI-H460, single point at 100 nM, 3 hrs compound incubation; for IC50: NCI-H460, 3 h, 3 hr compound incubation, Cisbio pERK HTRF.
The subject of test [7] is ASPC1 cells. The test is described as follows: Inhibition of KRas-mediated phosphorylation of ERK (Cisbio HTRF pERK), ASPC1 cells. Format: cell-based. The settings on record: Homo sapiens, ASPC1, 3 h, AsPC-1 cells; 3 hr compound incubation; Cisbio pERK HTRF.
In test [8] the target is KRas G12V (Homo sapiens, UniProt P01116, G12V). The test is described as follows: biochemical. The settings on record: Binding to KRas (IC50 nM) G12V, TR-FRET displacement, KRas G12V.
Chain of KRas G12V (P01116 1-169 isoform P01116-2 G12V): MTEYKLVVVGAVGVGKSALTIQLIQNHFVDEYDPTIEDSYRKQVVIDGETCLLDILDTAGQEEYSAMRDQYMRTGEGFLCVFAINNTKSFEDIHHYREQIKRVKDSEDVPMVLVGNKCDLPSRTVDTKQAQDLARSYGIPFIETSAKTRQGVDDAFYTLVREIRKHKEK
The target in test [9] is KRas G12D (Homo sapiens, UniProt P01116, G12D). The test is described as follows: biochemical. The settings on record: Binding to KRas (IC50 nM) G12D, TR-FRET displacement, KRas G12D.
Chain of KRas G12D (P01116 1-169 isoform P01116-2 G12D): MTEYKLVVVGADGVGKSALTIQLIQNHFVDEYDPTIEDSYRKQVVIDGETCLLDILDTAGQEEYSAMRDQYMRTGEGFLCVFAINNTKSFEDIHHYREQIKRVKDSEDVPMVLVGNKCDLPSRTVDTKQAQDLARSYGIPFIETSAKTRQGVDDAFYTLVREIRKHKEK
In test [10] the test system is A549 cells. The test is described as follows: Inhibition of KRas-mediated phosphorylation of ERK (Cisbio HTRF pERK), A549 cells. The class given is cell-based. To be noted: Homo sapiens, A549, 3 h, 3 hr compound incubation, Cisbio pERK HTRF.

The structures appear in SMILES notation.

Chain of KRas G12R (P01116 1-169 isoform P01116-2 G12R): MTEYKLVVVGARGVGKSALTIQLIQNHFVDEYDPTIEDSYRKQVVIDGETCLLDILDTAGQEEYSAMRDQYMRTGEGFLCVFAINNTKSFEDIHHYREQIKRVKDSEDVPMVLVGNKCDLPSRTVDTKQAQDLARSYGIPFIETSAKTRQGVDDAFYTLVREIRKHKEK

With `CCc1c(F)ccc2cc(O)cc(N3CCc4c(nc(OC[C@@]56CCCN5C[C@H](F)C6)nc4N4CCCn5nc(N(C)C(C)=O)cc5C4)C3)c12` [Example 355, N-(5-(7-(8-ethyl-7-fluoro-3-hydroxynaphthalen-1-yl)-2-(((2R,7aS)-2-fluorohexahydro-1H-pyrrolizin-7a-yl)methoxy)-5,6,7,8-tetrahydropyrido[3,4-d]pyrimidin-4-yl)-5,6,7,8-tetrahydro-4H-pyrazolo[1,5-a][1_4]diazepin-2-yl)-N-methylacetamide], the IC50 in test [1] was 417 nM; in test [2], greater than 10000 nM; in [4] it was 562 nM; in test [5] it was 9 nM; in test [7], 597 nM; in test [8] it was 6 nM. For the same compound, in [9], the concentration for half-maximal inhibition (IC50) was 3 nM. Further, the values for the inhibition at 0.1 µM in test [3] and in test [6] were -28% and 18%, respectively.

For the compound `CCc1c(F)ccc2cc(O)cc(N3CCc4c(nc(OC[C@@]56CCCN5C[C@H](F)C6)nc4N4CCCn5nc(NC(C)=O)cc5C4)C3)c12` [Example 356, N-(5-(7-(8-ethyl-7-fluoro-3-hydroxynaphthalen-1-yl)-2-(((2R,7aS)-2-fluorohexahydro-1H-pyrrolizin-7a-yl)methoxy)-5,6,7,8-tetrahydropyrido[3,4-d]pyrimidin-4-yl)-5,6,7,8-tetrahydro-4H-pyrazolo[1,5-a][1,4]diazepin-2-yl)acetamide], the IC50 is 216 nM in [1]; greater than 10000 nM in test [2]; 284 nM in [4]; 3 nM in [5]; 524 nM in test [10]; 262 nM in test [7]. The IC50 is 3 nM in test [8] and less than 2 nM in [9]. Further, the figures for the inhibition at 0.1 µM in [3] and in test [6] were -2% and 28%, respectively.

For `CCc1c(F)ccc2cc(O)cc(N3CCc4c(nc(OC[C@@]56CCCN5C[C@H](F)C6)nc4N4CCCc5nc[nH]c5C4)C3)c12` [Example 357, 4-(4-(7,8-dihydroimidazo[4,5-c]azepin-5(3H,4H,6H)-yl)-2-(((2R,7aS)-2-fluorohexahydro-1H-pyrrolizin-7a-yl)methoxy)-5,6-dihydropyrido[3,4-d]pyrimidin-7(8H)-yl)-5-ethyl-6-fluoronaphthalen-2-ol], the IC50 was 2600 nM in test [1]; greater than 10000 nM in test [2]; 1830 nM in test [4]; 7 nM in [5]; 4410 nM in test [7]; 6 nM in test [8]. In [9], this compound gave an IC50 of 11 nM. Moreover, the inhibition at 0.1 µM was -20% in test [3] and 12% in [6].

As for `CCc1c(F)ccc2cc(O)cc(N3CCc4c(nc(OC[C@@]56CCCN5C[C@H](F)C6)nc4N4CCCc5n[nH]cc5C4)C3)c12` [Example 361, 4-(4-(7,8-dihydropyrazolo[4,3-c]azepin-5(2H,4H,6H)-yl)-2-(((2R,7aS)-2-fluorohexahydro-1H-pyrrolizin-7a-yl)methoxy)-5,6-dihydropyrido[3,4-d]pyrimidin-7(8H)-yl)-5-ethyl-6-fluoronaphthalen-2-ol], the half-maximal inhibitory concentration (IC50) in test [1] was 401 nM; in test [2], greater than 10000 nM; in test [4] it was 466 nM; in test [5], 5 nM; in test [7], 636 nM; in test [8], 6 nM. Also, the IC50 in test [9] is 14 nM. The inhibition at 0.1 µM was -11% in test [3] and 1% in test [6].

As to `CCc1c(F)ccc2cc(O)cc(N3CCc4c(nc(OC[C@@]56CCCN5C[C@H](F)C6)nc4N4CCCn5nc(NS(C)(=O)=O)cc5C4)C3)c12` [Example 364, N-(5-(7-(8-ethyl-7-fluoro-3-hydroxynaphthalen-1-yl)-2-(((2R,7aS)-2-fluorohexahydro-1H-pyrrolizin-7a-yl)methoxy)-5,6,7,8-tetrahydropyrido[3,4-d]pyrimidin-4-yl)-5,6,7,8-tetrahydro-4H-pyrazolo[1,5-a][1,4]diazepin-2-yl)methanesulfonamide], the half-inhibitory concentration (IC50) in test [1] is 456 nM; in [2], greater than 10000 nM; in [4] it was 716 nM; in [5], less than 2 nM; in [7], 997 nM; in test [8], 3 nM. This compound also registered an IC50 in [9] of 2 nM. Besides, the values for the inhibition at 0.1 µM in [3] and in [6] were 10% and 13%, respectively.

As to `CCc1c(F)ccc2cc(O)cc(N3CCc4c(nc(OC[C@@]56CCCN5C[C@H](F)C6)nc4N4CCCC(O)(C(N)=O)C4)C3)c12` (stereo partly drawn) [Example 368, 1-(7-(8-ethyl-7-fluoro-3-hydroxynaphthalen-1-yl)-2-(((2R,7aS)-2-fluorohexahydro-1H-pyrrolizin-7a-yl)methoxy)-5,6,7,8-tetrahydropyrido[3,4-d]pyrimidin-4-yl)-3-hydroxypiperidine-3-carboxamide], the half-inhibitory concentration (IC50) in test [1] came out at 69.1 nM; in [2], 7050 nM; in [4], 489 nM; in test [5], 6 nM; in test [7] it was 666 nM; in [8] it was 5 nM. This compound also showed an IC50 in test [9] of 10 nM. Further, the inhibition at 0.1 µM in test [3] was determined as 1%; in test [6] it was 31%.

For `CCc1c(NC)nn2c1CN(c1nc(OC[C@@]34CCCN3C[C@H](F)C4)nc3c1CCN(c1cc(O)cc4ccc(F)c(CC)c14)C3)CCC2` [Example 404], the IC50 in [1] is 43.5 nM; in test [2], greater than 10000 nM; in test [3] it was 424 nM; in [4], 188 nM; in test [5], 3 nM; in [10] it was 134 nM. Moreover, the IC50 stood at 178 nM in [6], 182 nM in test [7], 6 nM in test [8] and 5 nM in test [9].

As to `CCc1c(F)ccc2cc(O)cc(N3CCc4c(nc(OC[C@@]56CCCN5C[C@H](F)C6)nc4N4CCCSCC4)C3)c12` [Example 417, 5-ethyl-6-fluoro-4-(2-(((2R,7aS)-2-fluorohexahydro-1H-pyrrolizin-7a-yl)methoxy)-4-(1,4-thiazepan-4-yl)-5,6-dihydropyrido[3,4-d]pyrimidin-7(8H)-yl)naphthalen-2-ol], the concentration for half-maximal inhibition (IC50) in test [1] was 29.3 nM; in [2], 5700 nM; in [3], 273 nM; in test [4], 128 nM; in [5], less than 2 nM; in test [10], 63 nM. Also, the half-inhibitory concentration (IC50) is 84 nM in test [6], 208 nM in test [7], less than 2 nM in [8] and 13 nM in [9].

As for `CCc1c(F)ccc2cc(O)cc(N3CCc4c(nc(OCC5(CN(C)C)CC5)nc4N4CCCn5nncc5C4)C3)c12` [Example 430, 4-(4-(7,8-dihydro-4H-[1,2,3]triazolo[1,5-a][1,4]diazepin-5(6H)-yl)-2-((1-((dimethylamino)methyl)cyclopropyl)methoxy)-5,6-dihydropyrido[3,4-d]pyrimidin-7(8H)-yl)-5-ethyl-6-fluoronaphthalen-2-ol], the IC50 in test [1] is 94.9 nM; in [2], greater than 10000 nM; in test [3], 1030 nM; in [4], 269 nM; in [5] it was less than 2 nM; in test [10] it was 592 nM. In addition, the IC50 in test [6] is 439 nM; in test [7] it was 134 nM; in [8], less than 2 nM; in test [9], less than 2 nM.

For the compound `Oc1cc(N2CCc3c(nc(OC[C@@]45CCCN4C[C@H](F)C5)nc3N3CCCC4(CCSC4)C3)C2)c2c(Cl)c(F)ccc2c1` (stereo partly drawn) [Example 464, 5-chloro-6-fluoro-4-(2-(((2R,7aS)-2-fluorohexahydro-1H-pyrrolizin-7a-yl)methoxy)-4-(2-thia-7-azaspiro[4.5]decan-7-yl)-5,6-dihydropyrido[3,4-d]pyrimidin-7(8H)-yl)naphthalen-2-ol], the IC50 is 676 nM in test [1]; greater than 10000 nM in test [2]; 1180 nM in test [4]; 12 nM in test [5]; 1000 nM in [7]; 8 nM in [8]. This compound also gave an IC50 in test [9] of 9 nM. Further, the figures for the inhibition at 0.1 µM in [3] and in test [6] were 14% and -24%, respectively.

In general, IC50 refers to the midpoint of a concentration-inhibition curve. A low value points to greater potency in that assay. The inhibition is the relative decrease from the control value, in per cent.
